Assay results reported in patent US8679803B2, “Glucose conversion to ethanol via yeast cultures and bicarbonate ions” (Church & Dwight Co., Inc., priority 2007, dated 2014).
Like-named read-outs stand apart in the source and are kept apart here.

System: Saccharomyces cerevisiae (Ethanol Red)
Settings: yeast 2.4 g/L, glucose concentration at 10%
Procedure: Various concentrations of yeast were added to glucose based liquid media with and without NaHCO3 and the fermentation process monitored for glucose consumption and ethanol production.
The fermentation media consisted of 25 gm of glucose and 1 ml of urea (45%) in 250 ml of water. The pH of the system was adjusted to 4.5 with 1 M H2SO4. The temperature of incubation was about 32° C., and the tests were conducted for 72 hours. The tests compared fermentation systems with and without sodium bicarbonate (NaHCO3). NaHCO3 was added to final concentrations of 200 ppm or 500 ppm in the test vessels. […] In some vessels the pH was readjusted to 4.5. Yeasts (Saccharomyces cerevisiae (Ethanol Red) diluted 1 to 5 in water, were added to the various test vessels at 0.5, 2, 3, 4 and 5 ml. Yeasts at 3 ml in the vessel corresponds to 2.4 g/L. The fermentation media vessels were monitored for glucose utilization and ethanol production via HPLC measurement at 2, 4, 6, 24, 48 and 72 hours.

## O=C([O-])O.[Na+] [SBC, sodium bicarbonate]
SBC 200 ppm
  Ethanol (% after 48 hours): 4.8%
SBC 500 ppm
  Ethanol (% after 48 hours): 4.8%
